Reference: patent publication US11345659B2, “Pipecolic esters for inhibition of the proteasome” (THE BOARD OF REGENTS OF THE UNIVERSY OF TEXAS SYSTEM, priority 2018, dated 2022)
Entries after “also recorded” stand apart in the source; their conditions may differ.

Columns and labels:
[1] = target: T1, mTOR (Homo sapiens, UniProt P42345+P62942); test: Western blot of S6 phosphorylation in RPMI 8226 cells; assay type: cell-based; settings: RPMI 8226, 24 hours; rapamycin 2 nM, compound 3 and B1 0.2 μM
T1 construct: endogenous in cells; host or cells: RPMI 8226 (ATCC)
Experimental: (§1) Human multiple myeloma RPMI 8226 cells were purchased from American Type Culture Collection (ATCC; Manassas, Va.) and cultured according to ATCC specifications. […] The content of live cells was determined by excluding the Trypan Blue-stained cells. The cells were counted with TC20 Automated Cell Counter (Bio-Rad Laboratories, Hercules, Calif.) and EC50 was calculated with Origin Pro 2017 (OriginLab Corporation, Northampton, Mass.). When indicated, the cells were harvested, washed twice in PBS, resuspended in dilution buffer and stored in −80° C. To prepare crude lysates the thawed preparations were vortexed with glass beads and centrifuged for 5 min 5,000×g (4° C.). The supernate was centrifuged for 20 min 14,000×g. The resulting supernate was used as “crude lysate.” SDS-PAGE was carried in 12% acrylamide, Tris-glycine gels from Invitrogen. Chameleon Duo (Li-Cor) and Rainbow RPN800E (GE Healthcare) molecular weight standards were separated on each gel alongside lysates. The proteins were transferred to nitrocellulose membrane in a semi-dry system. The membranes were probed with specific primary antibodies from Life Technologies (S6, PS6) and Li-Cor (COX IV), and then with secondary antibodies from Li-Cor. In each experiment visualization of S6, PS6 and COX IV was performed on the same membrane with Odyssey Infrared Imaging System (Li-Cor). […]

[2] = target: T2, 20 S human housekeeping proteasome (Homo sapiens, UniProt P25787+P25789); test: ChT-L peptidase activity of 20 S proteasome activated with Rpt5 peptide; assay type: biochemical; settings: ChT-L, Suc-LLVY-AMC substrate, 20 S activated with Rpt5 peptide; read-out: IC50
T2 construct: purified from erythrocytes; purchased Enzo Life Sciences, Inc. (Farmingdale, N.Y.); host or cells: human erythrocytes
Experimental: (§2) Human housekeeping 20 S and 26 S and complexes purified from erythrocytes were purchased from Enzo Life Sciences, Inc. (Farmingdale, N.Y.). The 1 mg/ml stock 20 S proteasome was diluted to 0.2 mg/ml working solution in 50 mM Tris/HCl, pH 8 containing 20% glycerol (dilution buffer). For the 26 S proteasome stock, the dilution buffer was supplemented with 2 mM ATP, 1 mM MgCl2, and 1 mM DTT (dithiothreitol). The ChT-L peptidase activity was measured as arbitrary intensity units of fluorescence emitted by 7-amino-4-methylcoumarin (AMC) released from the canonical model peptide substrate succinyl-LeuLeuValTyr-methylcoumarin (SucLLVY-MCA; Bachem Bioscience Inc., Philadelphia, Pa.), used at concentration of 100 μM. Free AMC (Sigma-Aldrich, St. Louis, Mo.) was used as the standard. The Rpt5 C-terminal peptide was synthesized (standard solid-phase peptide chemistry) and purified to at least 98% purity by GenScript (Piscataway, N.J.). The Rpt5 peptide and the peptide substrate were dissolved in dimethylsulfoxide (DMSO) and such stock solutions were stored at −20° C. The total concentration of DMSO in final reaction mixtures never exceeded 3% (vol/vol).
The reaction was carried out in 96-well plates, in 100 μL of reaction mixture, for 1 hour at 37° C. In the case of 20 S proteasome, the reaction mixture consisted of 45 mM Tris/HCl, pH 8, 100 mM KCl with premixed 10 μM Rpt5 peptide and 100 μM Suc-LLVY-MCA, to which 200 ng (nearly […]) of proteasome and desired concentration of tested compounds in 1 μL of DMSO were added. To test the activity of 26 S proteasome under conditions challenging coordination of the three pairs of peptidase active centers, a mixture of three canonical substrates specific for the ChT-L (SucLLVY-MCA), trypsin-like (T-L; BocLRR-MCA) and caspase-like (Casp-L; Z-LLE-MCA) was used with each of the substrates at 33.3 μM (100 μM of the total substrate concentration). The reaction mixture in this case consisted of 50 mM Tris/HCl, pH 8, 20 mM NaCl, premixed with the substrates and 2 mM ATP, to which 200 ng (nearly 0.1 nmol) of the 26 S working solution and desired concentration of tested compounds in 0.5 μL of DMSO were added. The reaction rates were calculated from a linear segment of kinetic curves constructed from measurements in 1-minutes intervals (Fluoroskan Ascent plate reader; Thermo Fisher Scientific Inc., Waltham, Mass.). Reaction rates were calculated using a linear fit executed by Slope Analyzer and Enzyme Kinetics applications launched within Origin Pro 2017 (OriginLab). Specific activity of the control 20 S proteasome activated with the Rpt5 peptide was in the range of 1.4 to 2.3 nanomoles of AMC product released by 1 mg of 20 S per second (1.95±0.24; n=18). Specific activity of the control 26 S proteasome challenged with three substrates reached on average 0.28±0.06 nanomoles of AMC product released by 1 mg of the enzyme per second (n=6). For comparison, degradation of the canonical Suc-LLVY-MCA substrate by the control 26 S proteasome preceded with a rate in the range of 0.6-0.8 nanomoles of AMC released per mg of the enzyme per second. The data are presented as mean±SD or as a representative set from at least 3 independent experiments.
The compounds were evaluated using the 20 S human housekeeping proteasome. It was activated with the Rpt5 derived 10-residue peptide that contains the C-terminal HbYX (hydrophobic-Tyr-any AA) motif activating the proteasome in trans and to some extend mimic the activation by the 19 S regulatory particle (Osmulski and Gaczynska (2013) Molecular pharmacology 84: 104-113; Smith et al. (2006) J. Struct. Biol. 156: 72-83; Smith et al. (2007) Mol. Cell 27: 731-744). Proteolytic activity was monitored over time using a fluorogenic peptide substrate specific for the chymotrypsin-like active center (ChT-L, Suc-LLVY-AMC) in the presence of a concentration range of the inhibitors. […]

[3] = test system: Human multiple myeloma RPMI 8226 cells; test: Proliferation of RPMI 8226 cells, live cell count by Trypan Blue exclusion; assay type: cell-based; settings: RPMI 8226, 0.2 μM, 24 hours, read-out: cell proliferation, % of control
Experimental: Human multiple myeloma RPMI 8226 cells were purchased from American Type Culture Collection (ATCC; Manassas, Va.) and cultured according to ATCC specifications. […] The content of live cells was determined by excluding the Trypan Blue-stained cells. The cells were counted with TC20 Automated Cell Counter (Bio-Rad Laboratories, Hercules, Calif.) and EC50 was calculated with Origin Pro 2017 (OriginLab Corporation, Northampton, Mass.). When indicated, the cells were harvested, washed twice in PBS, resuspended in dilution buffer and stored in −80° C. To prepare crude lysates the thawed preparations were vortexed with glass beads and centrifuged for 5 min 5,000×g (4° C.). The supernate was centrifuged for 20 min 14,000×g. The resulting supernate was used as “crude lysate.” SDS-PAGE was carried in 12% acrylamide, Tris-glycine gels from Invitrogen. Chameleon Duo (Li-Cor) and Rainbow RPN800E (GE Healthcare) molecular weight standards were separated on each gel alongside lysates. The proteins were transferred to nitrocellulose membrane in a semi-dry system. The membranes were probed with specific primary antibodies from Life Technologies (S6, PS6) and Li-Cor (COX IV), and then with secondary antibodies from Li-Cor. In each experiment visualization of S6, PS6 and COX IV was performed on the same membrane with Odyssey Infrared Imaging System (Li-Cor).
The effects of compound 3 observed in vitro prompted its influence on the proliferation of cultured cancer cells to be tested, namely the multiple myeloma RPMI 8226 line. […] Such relatively low EC50, as compared to in vitro determined IC50 values for peptidase activities (2-3 μM; FIG. 3A and FIG. 3B) should come to no surprise. […] The in vitro readout of single peptidase activities is a useful and convenient measure of the catalytic prowess of proteasome. However, especially in the case of allosteric regulators, it may not fully reflect the important structural and functional effects.
Referring to FIG. […] The data are averages (±SD) of three-to-five independent experiments. […]

[4] = target: T3, FKBP12 (Homo sapiens, UniProt P62942); test: Suppression of rapamycin inhibition of S6 phosphorylation by competing for FKBP12; assay type: cell-based; settings: RPMI 8226, 24 hours; FK506 10 μM, compound 3 and B1 0.2 μM, with rapamycin
T3 construct: endogenous in cells; host or cells: RPMI 8226 (ATCC)
Experimental: as §1

[5] = target: T4, 26 S proteasome (Homo sapiens, UniProt P25787+P25789); test: 26 S proteasome challenged with mixture of three substrates (surrogate proteinase assay); assay type: biochemical; settings: mixture of ChT-L, T-L and Casp-L substrates, 33.3 μM each; read-out: IC50, 26 S proteasome with substrates for all three peptidases
T4 construct: purified from erythrocytes; purchased Enzo Life Sciences, Inc. (Farmingdale, N.Y.); host or cells: human erythrocytes
Experimental: as §2
The reaction was carried out in 96-well plates, in 100 μL of reaction mixture, for 1 hour at 37° C. In the case of 20 S proteasome, the reaction mixture consisted of 45 mM Tris/HCl, pH 8, 100 mM KCl with premixed 10 μM Rpt5 peptide and 100 μM Suc-LLVY-MCA, to which 200 ng (nearly […]) of proteasome and desired concentration of tested compounds in 1 μL of DMSO were added. […] The reaction rates were calculated from a linear segment of kinetic curves constructed from measurements in 1-minutes intervals (Fluoroskan Ascent plate reader; Thermo Fisher Scientific Inc., Waltham, Mass.). Reaction rates were calculated using a linear fit executed by Slope Analyzer and Enzyme Kinetics applications launched within Origin Pro 2017 (OriginLab). […]

[6] = target: T5, native human 20 S core proteasome (Homo sapiens, UniProt P25787+P25789); settings: literature; cited from earlier work
T5 construct: purified from erythrocytes; purchased Enzo Life Sciences, Inc. (Farmingdale, N.Y.); host or cells: human erythrocytes

T3 sequence (P62942 whole entry): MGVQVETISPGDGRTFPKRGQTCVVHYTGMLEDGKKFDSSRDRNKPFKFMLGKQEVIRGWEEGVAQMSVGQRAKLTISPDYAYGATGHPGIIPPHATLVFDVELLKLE

IC50 [2] [µM] | suppression of rapamycin inhibition of S6 phosphorylation (FKBP12 binding) [4] | IC50 [5] [µM] | SMILES | activity of mTOR (phosphorylation of S6) [1] | activity at 0.2 µM [3] [%] | contribution of closed forms in 20 S particles population [6]
5.8 | did not mimic the actions of FK506 | 4.6 | COc1cc(CCCOC(=O)[C@@H]2CCCCN2C(=O)C(=O)C2CCCCC2)cc(OC)c1OC (racemic) [Compound B1] | neither B1 nor compound 3 affected the activity of mTOR; also recorded: did not inhibit the S6 phosphorylation | 60 to 65 | –
– | – | – | CCOC(=O)[C@]1(c2ccccc2)N=C(c2ccc(OC)cc2)N(Cc2ccccc2)[C@@H]1c1ccc(NCc2ccccc2)cc1 [TCH-165] | – | – | induced a strong decrease in contribution of the closed forms
